Data published in ChEMBL document CHEMBL5214886, “An appraisal of anti-mycobacterial activity with structure-activity relationship of piperazine and its analogues: A review” (Eur J Med Chem, 2021).
pIC50: −log10 of the molar value. ≈ marks a conversion by molar mass, not a printed value. Where “and” joins values, the source holds several entries; their conditions need not be identical. Equal values may be shown once.

What was measured:
[1] = system: Mycobacterium tuberculosis; experiment: Antimycobacterial activity against Mycobacterium tuberculosis H37Rv ATCC 27294 assessed as reduction in bacterial growth and measured after 21 days by radiometric BACTEC method; type: functional; details: H37Rv ATCC 27294, 504 h, time 21 day
[2] = system: Mycobacterium tuberculosis; experiment: Antimycobacterial activity against Mycobacterium tuberculosis H37Rv assessed as reduction in bacterial growth by MABA assay; type: functional
[3] = system: Mycobacterium tuberculosis; experiment: Antimycobacterial activity against Mycobacterium tuberculosis H37Rv ATCC 27294 assessed as reduction in bacterial growth; type: functional
[4] = system: Mycobacterium tuberculosis; experiment: Antimycobacterial activity against Mycobacterium tuberculosis H37Rv assessed as reduction in bacterial growth; type: functional
[5] = system: Mycobacterium tuberculosis; experiment: Antimycobacterial activity against Mycobacterium tuberculosis My 331/88 (H37Rv) assessed as reduction in bacterial growth incubated for 14 days by microdilution method; type: functional; details: 336 h, time 14 day
[6] = system: Mycobacterium tuberculosis; experiment: Antimycobacterial activity against Mycobacterium tuberculosis H37Rv assessed as reduction in bacterial growth by BACTEC MGIT method; type: functional
[7] = system: Mycobacterium tuberculosis; experiment: Antimycobacterial activity against Mycobacterium tuberculosis H37Rv assessed as reduction in bacterial growth by agar dilution method; type: functional
[8] = system: Mycobacterium tuberculosis; experiment: Antimycobacterial activity against Mycobacterium tuberculosis H37Rv assessed as reduction in bacterial colonies by colony counting method; type: functional
[9] = system: Mycobacterium tuberculosis; experiment: Antimycobacterial activity against Mycobacterium tuberculosis H37Rv ATCC 27294 assessed as reduction in bacterial growth incubated for 7 days by MABA analysis; type: functional; details: H37Rv ATCC 27294, 168 h, time 7 day
[10] = system: Mycobacterium tuberculosis; experiment: Antimycobacterial activity against Mycobacterium tuberculosis H37Rv ATCC 27294 assessed as reduction in bacterial growth incubated for 72 hrs by two-fold dilution method; type: functional
[11] = system: Mycobacterium tuberculosis; experiment: Antimycobacterial activity against Mycobacterium tuberculosis H37Rv assessed as reduction in bacterial growth incubated for 21 days by broth dilution assay; type: functional; details: 504 h, time 21 day
[12] = system: Mycobacterium tuberculosis; experiment: Antimycobacterial activity against Mycobacterium tuberculosis H37Rv assessed as reduction in bacterial growth by MABA analysis; type: functional
[13] = system: Mycobacterium tuberculosis; experiment: Antimycobacterial activity against Mycobacterium tuberculosis H37Rv assessed as reduction in bacterial growth incubated for 15 days by turbidometric method; type: functional; details: 360 h, time 15 day
[14] = system: Mycobacterium tuberculosis; experiment: Antimycobacterial activity against Mycobacterium tuberculosis H37Rv ATCC 27294 assessed as reduction in bacterial growth by fluorescence based MABA method; type: functional
[15] = system: Mycobacterium tuberculosis; experiment: Antimycobacterial activity against Mycobacterium tuberculosis H37Rv ATCC 27294 assessed as reduction in bacterial growth by MABA analysis; type: functional
[16] = system: Mycobacterium tuberculosis; experiment: Antimycobacterial activity against Mycobacterium tuberculosis H37Rv assessed as reduction in bacterial growth incubated for 6 days by resazurin reduction microplate assay; type: functional; details: 144 h, time 6 day
[17] = system: Mycobacterium tuberculosis; experiment: Antimycobacterial activity against Mycobacterium tuberculosis H37Rv assessed as reduction in bacterial growth by REMA analysis; type: functional
[18] = system: Mycobacterium tuberculosis; experiment: Antimycobacterial activity against Mycobacterium tuberculosis H37Rv assessed as reduction in bacterial growth and measured after 7 days by resazurin assay; type: functional, organism-based; details: 168 h
[19] = system: Mycobacterium tuberculosis; experiment: Antimycobacterial activity against Mycobacterium tuberculosis kurono assessed as reduction in bacterial colonies incubated for 14 days by colony counting method; type: functional; details: 336 h, time 14 day
[20] = system: Mycobacterium tuberculosis; experiment: Antimycobacterial activity against Mycobacterium tuberculosis H37Ra assessed as reduction in bacterial growth; type: functional
[21] = Aqueous solubility of the compound incubated for 3 days by shake flask method; type: physicochemical; details: water; time 3 day
[22] = target: T1, Enoyl-[acyl-carrier-protein] reductase [NADH] (Mycobacterium tuberculosis, UniProt P9WGR1); experiment: Inhibition of Mycobacterium tuberculosis InhA using octenoyl-CoA as substrate in presence of NADH and measured for 10 mins by colorimetric assay
T1 sequence (P9WGR1 whole entry): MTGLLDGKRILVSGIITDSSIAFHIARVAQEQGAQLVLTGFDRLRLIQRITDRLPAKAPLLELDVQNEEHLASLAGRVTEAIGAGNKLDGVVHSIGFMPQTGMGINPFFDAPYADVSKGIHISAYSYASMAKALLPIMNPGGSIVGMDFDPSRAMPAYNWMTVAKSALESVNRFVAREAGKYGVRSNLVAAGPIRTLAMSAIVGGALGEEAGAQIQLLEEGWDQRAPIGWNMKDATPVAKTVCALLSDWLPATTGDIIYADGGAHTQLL

CCOC(=O)N1CCN(CC(=O)C2C(c3ccc(OC)cc3)C(C)C(=O)C(C)C2c2ccc(OC)cc2)CC1 (stereo not drawn)
MIC [1]: 29.8 µM (≈ 16 µg/mL)

CCOC(=O)c1ccc(N2CCN(c3nccc(N4CCOc5nc([N+](=O)[O-])cn5C4)n3)CC2)cc1
MIC [2]: > 100 µM

COc1cc(N2CCN(c3ccc(N4C[C@H](CNC(C)=O)OC4=O)cc3F)CC2)nc2nccn12
MIC [3]: 1.03 µM (≈ 0.498 µg/mL)

COC(=O)COc1ccc2ccccc2c1CN1CCN(C/C=C/c2ccccc2)CC1
MIC [4]: 9.3 µM (≈ 4 µg/mL)

CCOC(=O)N1CCN(CC(=O)C2C(c3cccc(F)c3)C(C)C(=O)C(C)C2c2cccc(F)c2)CC1 (stereo not drawn)
MIC [1]: 31.2 µM (≈ 16 µg/mL)

CC(=O)NC[C@H]1CN(c2ccc(N3CCN(c4ccc5nccn5n4)CC3)c(F)c2)C(=O)O1
MIC [3]: 1.1 µM (≈ 0.499 µg/mL)

CC[C@@H](CO)NCCN[C@@H](CC)CO [ETHAMBUTOL]
MIC [5]: 1.1 µM (≈ 0.225 µg/mL)

NC(=O)c1cnccn1 [PYRAZINAMIDE]
MIC [6]: 50.8 µM (≈ 6.25 µg/mL) | MIC [7]: 50.8 µM (≈ 6.25 µg/mL)

CCOC(=O)N1CCN(CC(=O)C2C(c3ccccc3)CC(=O)C(CC)C2c2ccccc2)CC1 (stereo not drawn)
MIC [1]: 33.6 µM (≈ 16 µg/mL)

CCCCCCCCCN1CCN(c2c(F)cc3c(c2OC)C(C2CC2)=CC(C(=O)O)C3=O)CC1 (stereo not drawn)
MIC [8]: 0.25 µM (≈ 0.122 µg/mL)

CC(C)(C)c1ccc(S(=O)(=O)N2CCN(c3nc4ccccc4c4ccccc34)CC2)cc1
MIC [9]: 3.39 µM (≈ 1.56 µg/mL)

COc1ccc2cc(C(=O)CN3CCN(c4c(F)cc5c(=O)c(C(=O)O)cn(C6CC6)c5c4OC)CC3)c(=O)oc2c1
MIC [10]: 0.43 µM (≈ 0.248 µg/mL)

O=C(CSc1nnc(N2CCN(c3cc4c(cc3F)c(=O)c(C(=O)O)cn4C3CC3)CC2)s1)c1ccc([N+](=O)[O-])cc1
MIC [11]: 0.82 µM (≈ 0.501 µg/mL)

CO[C@H]1/C=C/O[C@@]2(C)Oc3c(C)c(O)c4c(O)c(c(/C=N/N5CCN(C)CC5)c(O)c4c3C2=O)NC(=O)/C(C)=C\C=C\[C@H](C)[C@H](O)[C@@H](C)[C@@H](O)[C@@H](C)[C@H](OC(C)=O)[C@@H]1C [RIFAMPIN]
MIC [12]: > 48.6 µM

CCCCOC(=O)Nc1ccc(C(O)CN2CCN(c3ccccc3F)CC2)cc1 (stereo not drawn)
MIC [5]: 8 µM (≈ 3.32 µg/mL)

Cc1cccc(-c2nc(CN3CCN(c4ccnc5cc(-c6cccnc6)ccc45)CC3)no2)c1C
MIC [13]: 0.52 µM (≈ 0.248 µg/mL)

NNC(=O)c1ccncc1 [ISONIAZID]
MIC [11]: 10.9 µM (≈ 1.5 µg/mL) | MIC [12]: 0.06 µM (≈ 0.00823 µg/mL)

N#Cc1ccc(Nc2nc(Oc3ncnc4ccccc34)nc(N3CCN(c4cccc(Cl)c4Cl)CC3)n2)cc1C(F)(F)F
MIC [6]: > 9.79 µM | MIC [7]: 9.79 µM (≈ 6.25 µg/mL)

CC1COc2c(N3CCNCC3)c(F)cc3c(=O)c(C(=O)O)cn1c23 (stereo not drawn) [DESMETHYL-OFLOXACIN]
MIC [14]: 11.7 µM and 4.55 µM

COc1c(N2CCNC(C)C2)c(F)cc2c(=O)c(C(=O)O)cn(C3CC3)c12 (stereo not drawn) [GATIFLOXACIN]
MIC [10]: 0.66 µM (≈ 0.248 µg/mL)

CC1COc2c(N3CCN(C)CC3)c(F)cc3c(=O)c(C(=O)O)cn1c23 (stereo not drawn) [OFLOXACIN]
MIC [5]: 1 µM (≈ 0.361 µg/mL)

CCOC(=O)C1=NOC(c2ccc(N3CCN(Cc4ccccc4)CC3)cc2)C1 (stereo not drawn)
MIC90 [11]: 3.96 µM (≈ 1.56 µg/mL)

O=C(c1ccncc1)N1CCN(c2nc3ccccc3c3ccccc23)CC1
MIC [9]: 4.23 µM (≈ 1.56 µg/mL)

CCn1cc(C(=O)O)c(=O)c2cc(F)c(N3CCN(CN4C(=O)/C(=N\c5ncc(Cc6cc(OC)c(OC)c(OC)c6)c(N)n5)c5cc(Cl)ccc54)C(C)C3)c(F)c21 (stereo not drawn)
MIC [2]: 1.91 µM (≈ 1.56 µg/mL) | MIC [15]: 1.91 µM (≈ 1.56 µg/mL)

O=c1nc(N2CCN(CC3CCCCC3)CC2)sc2c([N+](=O)[O-])cc(C(F)(F)F)cc12 [MACOZINONE]
MIC [16]: 0.0004 µM (≈ 0.000183 µg/mL) | MIC [17]: < 0.42 µM

COc1ccc(N2CCN(c3ccc(CNC(=O)c4ccc([N+](=O)[O-])o4)cc3)CC2)cc1
MIC [12]: < 0.04 µM

O=C(CCCc1cc2ccccc2[nH]1)N1CCN(c2nc3ccccc3c3ccccc23)CC1
MIC [9]: 3.48 µM (≈ 1.56 µg/mL)

Cc1ccc2nc(-c3ccccc3)c(C(c3ccccc3)N(CC(=O)N3CCN(c4ccccn4)CC3)Cc3ccccc3)cc2c1 (stereo not drawn)
pIC50 [18]: 5.40

Cc1cn2c(C(=O)NCc3ccc(N4CCN(c5ccc(C(F)(F)F)cn5)CC4)c(F)c3)cnc2s1
MIC [9]: 0.004 µM (≈ 0.00207 µg/mL)

O=C(CSc1nnc(N2CCN(c3cc4c(cc3F)c(=O)c(C(=O)O)cn4C3CC3)CC2)s1)c1ccc(Cl)cc1
MIC [11]: 1.67 µM (≈ 1 µg/mL)

O=C(NCc1ccc(N2CCN(c3ccc(F)cc3F)CC2)cc1)c1ccc([N+](=O)[O-])o1
MIC [12]: < 0.04 µM

CON=C1CCC(CN2CCN(c3nc(=O)c4cc(C(F)(F)F)cc([N+](=O)[O-])c4s3)CC2)CC1 (stereo not drawn)
MIC [12]: < 0.03 µM

CCOC(=O)N1CCN(CC(=O)C2C(c3ccc(Cl)cc3)C(C)C(=O)C(C)C2c2ccc(Cl)cc2)CC1 (stereo not drawn)
MIC [1]: 29.3 µM (≈ 16 µg/mL)

CCn1cc(C(=O)O)c(=O)c2cc(F)c(N3CCN(c4nnc(SCC(=O)c5ccc([N+](=O)[O-])cc5)s4)CC3)cc21
MIC [11]: 1.68 µM (≈ 1.01 µg/mL)

CCOC(=O)N1CCN(CC(=O)C2C(c3ccccc3)C(C)C(=O)C(C)C2c2ccccc2)CC1 (stereo not drawn)
MIC [1]: 33.6 µM (≈ 16 µg/mL)

CCON=C1CCC(CN2CCN(c3nc(=O)c4cc(C(F)(F)F)cc([N+](=O)[O-])c4s3)CC2)CC1 (stereo not drawn)
MIC [12]: < 0.03 µM

O=C(NCc1ccc(N2CCN(c3ccc(F)cc3)CC2)cc1)c1ccc([N+](=O)[O-])o1
MIC [12]: < 0.04 µM

CC(C)(c1ccc(OCc2ccc(C(F)(F)F)cc2)cc1)N1CCN(c2ccc(OC[C@H]3CCn4cc([N+](=O)[O-])nc4O3)cc2)CC1
MIC [19]: 0.001 µM (≈ 0.000652 µg/mL)

O=C(NCc1ccc(N2CCN(Cc3ccccc3)CC2)cc1)c1ccc([N+](=O)[O-])o1
MIC [20]: 0.014 µM (≈ 0.00589 µg/mL) | MIC [4]: 0.014 µM (≈ 0.00589 µg/mL)

O=c1nc(N2CCN(S(=O)(=O)C3CC3)CC2)sc2c([N+](=O)[O-])cc(C(F)(F)F)cc12
MIC [16]: 0.0064 µM (≈ 0.00297 µg/mL) | solubility thermodynamic at 72 h [21]: 15.9 µM (≈ 7.39 µg/mL)

O=C(c1ccc2[nH]ccc2c1)N1CCN(C2c3ccccc3-c3ccc([N+](=O)[O-])cc32)CC1 (stereo not drawn)
pIC50 [22]: 6.57
